Patent publication US8835375B2 (Applied Nanosystems B.V., priority 2006, dated 2014)
Entries after “also recorded” stand apart in the source; their conditions may differ. Each block holds one substance with its values, some of them ahead of it. Non-standard residues stand in square brackets, D forms with d. No end group written: not given here. Abu = CC[C@H](N)C(=O)O

Columns and labels:
[1] = cited from earlier work
[2] = tested on: angiotensin-I converting enzyme (ACE); assay: angiotensin-I converting enzyme (ACE) of the vascular endothelium; conditions: cited from earlier work
[3] = plasma from rat under continuous intravenous infusion (1 mL/hour); conditions: Sprague Dawley rat, up to 120 min
[4] = tested on: Angiotensin Converting Enzyme (ACE); assay: Angiotensin Converting Enzyme (ACE) from Porcine kidney, SIGMA, 8 nM in 100 mM Tris-HCl, 300 mm NaCl, 10 μM Zn, pH 8.3; conditions: 37° C.
[5] = tested on: Angiotensin Converting Enzyme (ACE); assay: Angiotensin Converting Enzyme (ACE) from Porcine kidney, SIGMA, 4 nM in 100 mM Tris-HCl, 300 mm NaCl, 10 μM Zn, pH 8.3; conditions: 37° C., up to 26 hour
angiotensinases = assay: in the body; angiotensinases located in red blood cells and the vascular beds of most tissues; conditions: cited from earlier work

Substance: DRVYIHPFHL
fragment found [1]: Ang(1-9); also recorded: Ang(1-7); also recorded: Ang III (Ang(2-8)); also recorded: Ang IV (Ang(3-8)) | cleaved bond [2]: Phe8-His9

not cleaved [4]: no breakdown observed | not cleaved [5]: no degradation after 26 hour
Substance: DRV[Abu]IHA
not cleaved [3]: intact peptide detected in the sample taken at 120 min; very stable

Substance: Asp-Arg-Val-Tyr-Ile-His-Pro-Phe
fragment found (angiotensinases): angiotensin III (Arg-Val-Tyr-Ile-His-Pro-Phe; or Ang(2-8)
